How the values were obtained:
[1] = system: male Balb/c mice; experiment: Caecal ligation and puncture (CLP) polymicrobial sepsis model; type: in vivo, mouse; settings: LR12 in septic mice
[2] = system: male Balb/c mice; experiment: as above; type: in vivo, mouse; settings: heading only; evaluation without results
Method: Adult male Balb/c mice (20-23 g) were subjected to caecal ligation and puncture under isoflurane anaesthesia and were randomly grouped (n=5-10 per group) to receive a single LR17 (100 μg in 0.2 mL NaCl 0.9%), scrambled-LR17 ([…] in 0.2 mL NaCl 0.9%), or 0.2 mL NaCl 0.9% i.p. injection. After 24 hours, animals were killed under anaesthesia. Results are mean±SD. p values are *p<0.05, **p<0.01, ***p<0.001 compared with control animals.
(A-B) Adult male Balb/c mice (20-23 g) were subjected to caecal ligation and puncture under isoflurane anaesthesia and were randomly grouped (n=25-40 per group) to receive a LR17, scrambled-LR17, or 0.2 mL NaCl 0.9% i.p. injection at indicated times. Survival was monitored over 1 wk and analyzed by Log Rank test.
Male Balb/c mice (4-6 weeks) were anesthetized with isoflurane. The cecum was exposed through a 1.0 cm abdominal midline incision and subjected to a ligation of the distal half followed by one puncture with a G21 needle. A small amount of stool was expelled from the puncture to ensure patency. The cecum was replaced into the peritoneal cavity and the abdominal incision closed in two layers. After surgery, all mice were injected s.c. with 0.5 mL of 0.9% NaCl solution for fluid resuscitation. The animals were randomly grouped and treated LR17 or LR17-scrambled as control in 250 μL 0.9% NaCl solution and administered i.p. In order to determine the effect of various doses of LR17 at different times, mice were treated with 50, 100 or 200 μg of LR17 at H1 after surgery, or with 3 injections of 100 μg at 2, 6 and 24 hours or with 100 μg in one injection at 24 hours after CLP and then monitored for survival. Five additional animals per group were killed under anaesthesia at 24 h after CLP for the determination of bacterial count and cytokines levels. Peritoneal lavage fluid was obtained using 2 mL RPMI 1640 (EuroBio), and blood was collected by cardiac puncture. Concentrations of plasma cytokines were determined by ELISA (R&Dsystems). For the assessment of bacterial counts, blood and crushed spleen were plated in serial log dilutions on tryptic soy supplemented with 5% sheep blood agar plates. After plating, tryptic soy agar plates were incubated at 37° C. aerobically for 24 h and anaerobically for 48 h. Results are expressed as CFU per ml of blood or per gram of spleen.

[3] = system: TREM-1 ligand (agonist); experiment: Immunoblot revealed by mouse anti-TREM-1 mAb (TREM-1 agonist); type: binding; settings: FIG. 1A
Description: To determine whether sTLT-1 may specifically bind to the TREM-1 ligand and thus interfere with the TREM-1/TREM-1 ligand interaction, we used a specific TREM-1 agonist known to bind and activate TREM-1, mimicking TREM-1 engagement by its ligand.

[4] = system: TREM-1 ligand expressed on resting or thrombin-activated human platelets; experiment: Flow cytometry binding of FITC-labelled peptides to human platelets; settings: competition with unlabelled substance
Method: (B) Flow cytometry analysis of FITC-labelled LR17 (1 or 5 μg/mL) binding to TREM-1 ligand expressed on resting or thrombin-activated (5 UI/mL) human platelets is reversed by co-incubation with unlabelled LR17, sTLT-1 or LP17, a TREM-1 derived peptide.
Acid Citrate Dextrose blood samples were centrifuged (100 g, 10 min) to obtain Platelet-Rich Plasma. PRP was then centrifuged (550 g, 10 min) over a 36% (wt/vol) BSA gradient and platelets collected from the interphase before being washed in Tyrode's salts buffer (Sigma-Aldrich) supplemented with 5 mM EGTA. For activation, platelets were incubated for 30 minutes with 5 U/mL thrombin (Sigma-Aldrich) or 1 μg/mL E. Coli LPS (0111:B4, Sigma-Aldrich) at 37° C. and subsequently fixed with 2% (wt/vol) paraphormaldehyde (PFA, Sigma-Aldrich). Residual PFA was removed by two additional washing steps in Tyrode buffer. Activation was assessed by anti-CD62P (Beckman Coulter).
Isolated cells (neutrophils, monocytes or platelets) were blocked for aspecific binding with 10% human Ig (Sigma-Aldrich) for 1 hour on ice. Cells were incubated with recombinant soluble FITC-labelled TLT-1-peptides, FITC-labelled LP17 (or corresponding FITC-labelled scrambled peptides), PE-labelled anti-TREM-1 mAb (R&Dsystems), CD62P-FITC, CD66b-PE, CD45-PE, CD14-FITC (all from Beckman Coulter)

[5] = system: human neutrophils; experiment: Neutrophil phagocytosis and oxidative burst (Phagotest, Bursttest); type: cell-based
Method: Data (mean±SD) are representative of 6 different experiments.
The quantitative determination of neutrophil phagocytosis and oxidative burst was performed by flow cytometry using the Phagotest and the Bursttest (Orpegen Pharma, Heidelberg, Germany) following the manufacturers' recommendations. A FITC-labelled opsonized E. coli was used to determine the general phagocytic activity (ingestion of one or more bacteria per cell) and the individual cellular phagocytic activity (number of bacteria per cell). For evaluation of oxidative burst activity, unlabeled opsonized E. coli, fMLP, PMA LPS and activated- or non-activated-platelets (30:1) were used as stimulants and DCFDA as a fluoregenic substrate (Invitrogen) accordingly with manufacturers' instructions.

## LQEEDAGEYGCM (listed as Homo sapiens) [LR12, N-terminal 12 amino-acids from LR17]
[1]; FIG. 7c
  coagulation disorders (platelet count): significant protection
[1]; FIG. 7g
  survival rate: improved survival rate
[1]; FIG. 7d
  organ dysfunction (lung histopathology): significant protection
[1]; FIGS. 7a and b
  systemic, broncho-alveolar and organ inflammation: significant protection

## EDAGEY (listed as Homo sapiens) [LR6-2, 6 amino-acids derived from LR17]
[2]
  protection against polymicrobial sepsis: Protect Mice Against Polymicrobial Sepsis

## GEYGCM (listed as Homo sapiens) [LR6-3, 6 amino-acids derived from LR17]
[2]
  protection against polymicrobial sepsis: Protect Mice Against Polymicrobial Sepsis

## LQEEDA (listed as Homo sapiens) [LR6-1, 6 amino-acids derived from LR17]
[2]
  protection against polymicrobial sepsis: Protect Mice Against Polymicrobial Sepsis

## GAEREVCMDEYGALQDG (listed as Homo sapiens) [LR17-scrambled, control peptide, reference compound]
[3]
  binding to the TREM-1 ligand (TREM-1 agonist, anti-TREM-1 mAb): not

B1: sTLT-1: soluble TLT-1 (TREM-like transcript 1), recombinant (protein)
chain: QGIVGSLPEVLQAPVGSSILVQCHYRLQDVKAQKVWCRFLPEGCQPLVSSAVDRRAPAGRRTFLTDLGGGLLQVEMVTLQEEDAGEYGCMVDGARGPQILHRVSLNILPPEEEEETHKIGSLAENAFSDPAGSANPLEPSQDEKSIP
[3]
  binding to the TREM-1 ligand (TREM-1 agonist, anti-TREM-1 mAb): able to bind the TREM-1 ligand
[4]
  effect of co-incubation on FITC-labelled LP17 binding to platelets: decreased
  effect of co-incubation on FITC-labelled LR17 binding to platelets: reversed
[5]; E. coli
  neutrophils' phagocytic properties: did not alter
[5]; not shown
  PMA- or fMLP-induced oxidative burst: no action
